Assays:
[1] = test system: HCC1428; experiment: CTG assay for proliferation inhibition of cell lines; assay type: cell-based; conditions: HCC1428, 7 days, CellTiter Glo
Experimental: (§1) The assay was conducted on either 384-well plates or 96-well plates. The procedures are as follows:
(§2) The cell suspensions were added to 384- or 96-well plates (384-well plate: 50 μL; 96-well plate: 100 μL) except for peripheral wells. The plates were incubated in a carbon dioxide incubator overnight, HCC1395, HCC1428 and NCI-H460 were placed in a carbon dioxide incubator of 5%, […] overnight. Prepared compounds (10 concentration gradients by serial 3-fold dilution) were added to the wells using the HPD300 micro-dosing instrument. The cell plates were incubated in a carbon dioxide incubator for 7 days. HCC1395, HCC1428 and NCI-H460 were incubated in a 5%, 37° CO2 incubator. On the day of plate measurement, 384- or 96-well plates were first equilibrated at room temperature for 10-30 minutes, then to the 384- or 96-well plate was added CellTiter Glo reagent (384-well plate: 25 μL; 96-well plate: 100 μL), shaken for 10 minutes away from light, and incubated for 10 minutes. The incubated plates were placed into Victor NIVO reader plates, and the pharmacodynamic inhibition curves were plotted and IC50 values were calculated using XLFit.

[2] = test system: NCI-H460; experiment: as above; assay type: cell-based; conditions: NCI-H460, 7 days, CellTiter Glo
Experimental: as §1, §2

[3] = test system: HCC1395; experiment: as above; assay type: cell-based; conditions: HCC1395, 7 days, CellTiter Glo
Experimental: as §1, §2

[4] = target: PARG (389-976) (Homo sapiens (Human), UniProt Q86W56); experiment: PARG enzyme inhibition assay (TR-FRET); assay type: biochemical
Experimental: PARG in vitro assays were conducted in standard 384-well plates in a total volume of 15 μL. 5 μL of PARG (389-976) (manufactured by Chempartner Chemical Co., Ltd.) in buffer (50 mM Tris-HCL 7.5, 30 mM KCl, 1 mM EDTA, 3 mM DTT, tween-20 0.01%, BSA 0.025%) was added at a final concentration of 1.5 pM to the 384-well plates containing the compounds to be tested, which was incubated for 30 min at room temperature. To the above mixture was added 5 μL Bio PARylated His-TEV-PARP1(2-1014) substrate (manufactured by Chempartner Chemical Co., Ltd.) at a final concentration of 12 nM, after addition, the resulting mixture was incubated for 30 minutes at room temperature. Then to the mixture was added detection reagent (5 μL) which was buffered with 50 mM Tris-HCL 7.5, 30 mM KCl, 1 mM EDTA, 3 mM DTT, tween-20 0.01%, BSA 0.025%, and consisted of 3 μM of compound PDD00017273 and 9 nM Mab anti-6HIS XL665 (Cisbio: 61HISXLA) and 0.9 nM streptavidin affinity terbium cryptate (Cisbio:610SATLA), all at 3× working concentrations (final concentrations of 1 μM, 3 nM and 0.3 nM, respectively). After 120 min incubation in the dark at room temperature, TR-FRET signals were measured at Ex 340 and Em 665 and Em 615. The ratio for each well was calculated as Em 665/Em 615 and the compound inhibition rate was calculated based on the obtained data.

[5] = class symbol, Bio PARylated His-TEV-PARP1 substrate, TR-FRET

PARG (389-976), sequence (Q86W56 389-976): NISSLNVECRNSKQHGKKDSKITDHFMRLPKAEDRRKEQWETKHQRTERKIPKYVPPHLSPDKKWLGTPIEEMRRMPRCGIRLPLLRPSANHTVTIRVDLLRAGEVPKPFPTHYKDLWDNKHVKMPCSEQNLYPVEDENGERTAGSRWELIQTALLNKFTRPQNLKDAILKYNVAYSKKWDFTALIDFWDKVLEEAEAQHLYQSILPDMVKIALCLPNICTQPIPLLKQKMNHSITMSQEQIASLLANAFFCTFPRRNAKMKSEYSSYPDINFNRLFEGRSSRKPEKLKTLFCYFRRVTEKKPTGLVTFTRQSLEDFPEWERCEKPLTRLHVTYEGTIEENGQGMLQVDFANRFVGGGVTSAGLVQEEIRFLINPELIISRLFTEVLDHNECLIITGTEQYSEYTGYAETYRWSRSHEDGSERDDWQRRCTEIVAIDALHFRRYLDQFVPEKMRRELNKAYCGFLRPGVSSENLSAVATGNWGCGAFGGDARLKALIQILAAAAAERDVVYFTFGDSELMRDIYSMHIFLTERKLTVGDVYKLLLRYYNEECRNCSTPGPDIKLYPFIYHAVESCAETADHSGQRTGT

IC50 [1] [µM]	IC50 [2] [µM]	IC50 [3] [µM]	IC50 [4, 5] [nM]	IC50 ([4]; numeric value in parentheses under the class symbol) [nM]	SMILES
0.454	0.261	0.3	< 1		CN=S(=O)(C(C)C)N1CC=C(c2cc(S(=O)(=O)NC3(C#N)CC3)cc3c(-c4nnc(C(F)F)s4)nn(C)c23)CC1 (stereo not shown) [Compound 40]
0.369	0.429	0.827	< 1		Cn1nc(-c2nnc(C(F)F)s2)c2cc(S(=O)(=O)NC3(C#N)CC3)cc(C3=CCN(S(=O)(=O)C4CCNCC4)CC3)c21 [Compound 39]
0.132	0.183	0.222	< 1	0.33	Cn1nc(-c2nnc(C(F)F)s2)c2cc(S(=O)(=O)NC3(C#N)CC3)cc(C3=CCN(S(=O)(=O)C4CCOCC4)CC3)c21 [Compound 5]

— US20250042891A1, “Compound containing structure of a heteroaromatic ring, pharmaceutical composition thereof and application thereof” (SHANGHAI YINGLI PHARMACEUTICAL CO., LTD, priority 2023, published 2025)
